Test results as given in the supplement of paper PMC10307832.

Key:
Test in all cases: relative viability (nuclei count vs DMSO), 5 days (fraction); higher = more cells survive
Idelalisib + Trametinib = compound: CC[C@H](Nc1ncnc2[nH]cnc12)c1nc2cccc(F)c2c(=O)n1-c1ccccc1 [Idelalisib] + CC(=O)Nc1cccc(-n2c(=O)n(C3CC3)c(=O)c3c(Nc4ccc(I)cc4F)n(C)c(=O)c(C)c32)c1 [Trametinib] (partner 0.02 µM)
Outline: (§1)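 Lung cancer cell lines in 1536-well plates were dosed by pin tool the day after seeding, either with one drug alone or with a fixed anchor-drug dose plus five library-drug doses (not always all listed) in √10 steps. After 5 days, cells were fixed and their nuclei stained in one step (final 0.05% Triton X-100, 1% formaldehyde, 1 ug/ml Hoechst), then counted on 4× images. Relative viability is the nuclei count in treated wells divided by that in vehicle wells. Values are medians of duplicate plates.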

Idelalisib + Alpelisib = compound: CC[C@H](Nc1ncnc2[nH]cnc12)c1nc2cccc(F)c2c(=O)n1-c1ccccc1 [Idelalisib] + Cc1nc(NC(=O)N2CCC[C@H]2C(N)=O)sc1-c1ccnc(C(C)(C)C(F)(F)F)c1 [Alpelisib] (partner 2 µM)
Outline: as §1

Pemetrexed + Vorinostat = compound: Nc1nc2[nH]cc(CCc3ccc(C(=O)N[C@@H](CCC(=O)O)C(=O)O)cc3)c2c(=O)[nH]1 [Pemetrexed] + O=C(CCCCCCC(=O)Nc1ccccc1)NO [Vorinostat] (partner 1 µM)
Outline: as §1

Idelalisib + Tozasertib = compound: CC[C@H](Nc1ncnc2[nH]cnc12)c1nc2cccc(F)c2c(=O)n1-c1ccccc1 [Idelalisib] + Cc1cc(Nc2cc(N3CCN(C)CC3)nc(Sc3ccc(NC(=O)C4CC4)cc3)n2)n[nH]1 [Tozasertib] (partner 0.1 µM)
Outline: as §1

| Cell Line | relative viability (Idelalisib + Trametinib; first compound 0.04 µM) | relative viability (Idelalisib + Trametinib; first compound 0.1265 µM) | relative viability (Idelalisib + Trametinib; first compound 0.4 µM) | relative viability (Idelalisib + Trametinib; first compound 1.265 µM) | relative viability (Idelalisib + Trametinib; first compound 4 µM) | relative viability (Idelalisib + Alpelisib; first compound 0.04 µM) | relative viability (Idelalisib + Alpelisib; first compound 0.1265 µM) | relative viability (Idelalisib + Alpelisib; first compound 0.4 µM) | relative viability (Idelalisib + Alpelisib; first compound 1.265 µM) | relative viability (Idelalisib + Alpelisib; first compound 4 µM) | relative viability (Pemetrexed + Vorinostat; first compound 0.002 µM) | relative viability (Pemetrexed + Vorinostat; first compound 0.006325 µM) | relative viability (Pemetrexed + Vorinostat; first compound 0.02 µM) | relative viability (Pemetrexed + Vorinostat; first compound 0.06325 µM) | relative viability (Pemetrexed + Vorinostat; first compound 0.2 µM) | relative viability (Idelalisib + Tozasertib; first compound 0.04 µM) | relative viability (Idelalisib + Tozasertib; first compound 0.1265 µM) | relative viability (Idelalisib + Tozasertib; first compound 0.4 µM) | relative viability (Idelalisib + Tozasertib; first compound 1.265 µM) | relative viability (Idelalisib + Tozasertib; first compound 4 µM) |
| --- | --- | --- | --- | --- | --- | --- | --- | --- | --- | --- | --- | --- | --- | --- | --- | --- | --- | --- | --- | --- |
| BEN | 1.01 | 0.98 | 0.929 | 0.735 | 0.766 | 1.05 | 1.13 | 0.853 | 1.04 | 0.853 | 0.6 | 0.578 | 0.587 | 0.573 | 0.555 | 0.479 | 0.562 | 0.542 | 0.488 | 0.413 |
| NCI-H2347 | 0.267 | 0.282 | 0.246 | 0.278 | 0.229 | 0.964 | 1 | 0.989 | 1.07 | 0.881 | 0.49 | 0.487 | 0.609 | 0.468 | 0.436 | 0.591 | 0.517 | 0.408 | 0.443 | 0.441 |
| LCLC-103H | 0.659 | 0.607 | 0.664 | 0.63 | 0.64 | 1 | 0.914 | 0.744 | 0.868 | 0.926 | 0.663 | 0.753 | 0.857 | 0.881 | 0.763 | 0.505 | 0.48 | 0.425 | 0.472 | 0.308 |
| NCI-H650 | 1.08 | 0.928 | 0.888 | 1.09 | 0.848 | 1.27 | 1.01 | 0.961 | 1.46 | 0.962 | 0.378 | 0.552 |  | 0.427 | 0.453 | 0.748 | 0.767 | 0.635 | 0.803 | 0.69 |
| NCI-H1975 | 0.328 | 0.382 | 0.37 | 0.375 | 0.288 | 0.681 | 0.609 | 0.552 | 0.613 | 0.4 | 0.666 | 0.721 | 0.699 | 0.588 | 0.308 | 0.7 | 0.794 | 0.671 | 0.718 | 0.565 |
| NCI-H2126 | 0.602 | 0.602 | 0.542 | 0.575 | 0.485 | 0.739 | 0.739 | 0.611 | 0.675 | 0.6 | 0.638 | 0.719 | 0.777 | 0.798 | 0.688 | 0.838 | 0.905 | 0.765 | 0.813 | 0.626 |
| NCI-H2087 | 0.206 | 0.23 | 0.204 | 0.205 | 0.156 | 1.03 | 1.19 | 1.11 | 1.09 | 0.651 | 0.662 | 0.751 | 1.06 | 0.591 | 0.757 | 0.249 | 0.272 | 0.212 | 0.216 | 0.235 |
